# Reference: publication PMC11206519, “Multi-Endpoint Toxicological Assessment of Chrysin Loaded Oil-in-Water Emulsion System in Different Biological Models” (Nanomaterials, 2024)
# Like-named read-outs stand apart in the source and are kept apart here.
# Tests used:
# [1] = system: RAW 264.7; assay: MTT cytotoxicity assay; type: cell-based, murine; details: Mus musculus, RAW264.7, 48 h
# Experimental: RAW 264.7 (murine macrophage-like cell), 3T3-L1 adipocyte (murine adipocyte), HEK293 (human embryonic kidney cell), and LX-2 (human hepatic stellate cell) were obtained from American Type Culture Collection (ATCC, Manassas, VA, USA). RAW 264.7 macrophages were cultured as a suspension culture in an ultra-low attachment culture dish, whereas the others were cultured as adherent cells in a cell culture flask. The cells were grown in Dulbecco’s Modified Eagle Medium (DMEM) with L-glutamine, supplemented with 10% fetal bovine serum (FBS) (RAW 264.7, HEK293, and LX-2) or 10% fetal calf serum (FCS) (3T3-L1) and 1% penicillin under 5% CO2, at 37 °C. […] Blank-ES was used as a vehicle control. The amount of blank-ES was equal to chrysin-ES amount that was used for the treatment. The cytotoxicity of chrysin, chrysin-ES, and blank-ES in each cell was determined using an MTT assay. […] Then, the solution was gently removed, and the formazan crystal was dissolved with dimethyl sulfoxide (DMSO). The soluble formazan was measured using a microplate reader (Bio-TEK Synergy Hybrid Reader H4) at 540 nm. The cell viability is directly related to the absorbance of formazan. The percentage of cell viability was calculated using the following equation. Cell viability (%) = (Absorbance (sample))/(Absorbance (control)) × 100
# [2] = system: D. melanogaster trans-heterozygous mwh+/+flr3 larvae of the HB cross; assay: SMART wing spot test, mutagenicity, HB cross; type: in vivo, Drosophila melanogaster
# Experimental: The somatic mutation and recombination test, or the wing spot test, using D. melanogaster was employed as an in vivo system to assess the mutagenicity and anti-mutagenicity of chrysin-ES. Two different crosses were conducted: (i) a standard cross (ST) and (ii) a high bioactivation cross (HB) [18]. The standard cross larvae were obtained from virgin female of flr3/TM3, Ser crossed with males of mwh/mwh, while the HB cross larvae expressing cytochrome P450 enzymes involved in xenobiotic biotransformation were obtained from virgin females of ORR/ORR; flr^3/In (3LR) TM3, ri p^psep l (3)89Aa bx^34e e Bd^s crossed with males of mwh/mwh. The flies were cultured at a constant temperature of 25 ± 1 °C and 60–70% RH at photoperiod 12:12 (light/dark). To evaluate the mutagenicity of chrysin and chrysin-ES, a hundred larva F1 progenies derived from the above crossing were fed with instant Drosophila medium (Formula 4-24®), Carolina, Burlington, NC, USA) containing chrysin or chrysin-ES (20–120 µg/mL). DI was used as a negative control, while 20 mM urethane (URE) was used as a positive control. The larvae were reared on each medium until pupation at 25 °C. After that, forty wings of surviving flies in each group were collected for mutant analysis. The mutant spots on the wings, including small single spots, large single spots, and twin spots, were counted.
# [3] = system: S. typhimurium TA98; assay: Ames test, anti-mutagenicity
# Experimental: (§1) Furthermore, the anti-mutagenicity of the samples was performed by a similar procedure, as mentioned above. […] The percentage inhibition (decrease revertant colony number) was calculated as in the following equation:Anti-mutagenicity (%) = [1 − (b/a)] × 100 • a = revertant colony number induced via standard mutagen (positive control). • b = revertant colony number induced by standard mutagen in the presence of each sample treatment.
# (§2) The percent of inhibition between 0–20%, 21–40%, 41–60%, and higher than 60% indicate negligible, weak, moderate, and strong anti-mutagenicity, respectively.
# [4] = system: S. typhimurium TA100; assay: Ames test, anti-mutagenicity
# Experimental: as §1, §2
# [5] = system: S. typhimurium TA 98; assay: Ames test, mutagenicity; type: cell-based, Salmonella Typhimurium
# Experimental: (§3) The S. typhimurium strains TA 98 and TA 100 were used to detect frameshift and base-pair mutations, respectively. […] Then, they were poured onto minimal glucose agar containing a trace amount of histidine, following incubation at 37 °C for 48 h. Then, the revertant colonies were counted and compared with the negative control. If the number of revertant colonies in the tested sample treatment is at least twice that of the negative control (spontaneous revertant colonies), it is considered a mutagen.
# [6] = system: S. typhimurium TA 100; assay: Ames test, mutagenicity; type: cell-based, Salmonella Typhimurium
# Experimental: as §3
# [7] = system: Sprague Dawley rats; details: ref 45 (Yao et al.), cited from earlier work
# [8] = AF-2 0.1 µg/plate, −S9, 5.7 µM/plate
# [9] = AF-2 0.1 µg/plate, −S9, 11.4 µM/plate
# [10] = AF-2 0.1 µg/plate, −S9, 22.8 µM/plate
# [11] = PhIP 0.1 µg/plate, +S9, 0.35 µM/plate
# [12] = PhIP 0.1 µg/plate, +S9, 0.70 µM/plate
# [13] = PhIP 0.1 µg/plate, +S9, 1.40 µM/plate
# [14] = PhIP 0.1 µg/plate, +S9, 2.85 µM/plate
# [15] = PhIP 0.1 µg/plate, +S9, 5.70 µM/plate
# [16] = Salmonella enterica, TYPHIMURIUM, read-out: % mutagenic inhibition, AF-2 0.1 µg/plate, −S9, 5.7 µM/plate
# [17] = Salmonella enterica, TYPHIMURIUM, read-out: % mutagenic inhibition, AF-2 0.1 µg/plate, −S9, 11.4 µM/plate
# [18] = Salmonella enterica, TYPHIMURIUM, read-out: % mutagenic inhibition, AF-2 0.1 µg/plate, −S9, 22.8 µM/plate
# [19] = IQ 0.05 µg/plate, +S9, 0.35 µM/plate
# [20] = IQ 0.05 µg/plate, +S9, 0.70 µM/plate
# [21] = IQ 0.05 µg/plate, +S9, 1.40 µM/plate
# [22] = IQ 0.05 µg/plate, +S9, 2.85 µM/plate
# [23] = IQ 0.05 µg/plate, +S9, 5.70 µM/plate
smiles,measurement,setting,value
"O=c1cc(-c2ccccc2)oc2cc(O)cc(O)c12 [Chrysin, 5,7-dihydroxyflavone]",IC20,[1]; decreases cell viability by 20%,~43 µM
same,IC50,[1]; decreases cell viability by 50%,~69 µM
same,"Mutant spots per individual (number of spots), Large Single",[2]; 20 µg/mL,0.03 (1)
same,"Mutant spots per individual (number of spots), Total Spots",[2]; 20 µg/mL,0.23 (9)
same,"Mutant spots per individual (number of spots), Twin",[2]; 20 µg/mL,0.03 (1)
same,"Mutant spots per individual (number of spots), Large Single",[2]; 40 µg/mL,0.03 (1)
same,"Mutant spots per individual (number of spots), Total Spots",[2]; 40 µg/mL,0.15 (6)
same,"Mutant spots per individual (number of spots), Twin",[2]; 40 µg/mL,0 (0)
same,"Mutant spots per individual (number of spots), Large Single",[2]; 80 µg/mL,0.03 (1)
same,"Mutant spots per individual (number of spots), Total Spots",[2]; 80 µg/mL,0.15 (6)
same,"Mutant spots per individual (number of spots), Twin",[2]; 80 µg/mL,0 (0)
same,"Mutant spots per individual (number of spots), Large Single",[2]; 120 µg/mL,0 (0)
same,"Mutant spots per individual (number of spots), Small Single",[2]; 120 µg/mL,0.08 (3)
same,"Mutant spots per individual (number of spots), Total Spots",[2]; 120 µg/mL,0.08 (3)
same,"Mutant spots per individual (number of spots), Twin",[2]; 120 µg/mL,0 (0)
same,"Statistical diagnosis, Small Single","[2]; 120 µg/mL, vs DI",−
same,"Statistical diagnosis, Total Spots","[2]; 120 µg/mL, vs DI",−
same,Inhibitory Classification,[3]; [8],Mild
same,Number of Revertant Colonies,[3]; [8],166 ± 23
same,Inhibitory Classification,[3]; [9],Moderate
same,Number of Revertant Colonies,[3]; [9],140 ± 39
same,Inhibitory Classification,[3]; [10],Mild
same,Number of Revertant Colonies,[3]; [10],164 ± 56
same,Inhibitory Classification,[3]; [11],Moderate
same,Number of Revertant Colonies,[3]; [11],214 ± 9
same,Inhibitory Classification,[3]; [12],Strong
same,Number of Revertant Colonies,[3]; [12],153 ± 10
same,Inhibitory Classification,[3]; [13],Strong
same,Number of Revertant Colonies,[3]; [13],77 ± 12
same,Inhibitory Classification,[3]; [14],Strong
same,Number of Revertant Colonies,[3]; [14],71 ± 9
same,Inhibitory Classification,[3]; [15],Strong
same,Number of Revertant Colonies,[3]; [15],45 ± 18
same,inhibition at […],[3]; [16],34%
same,inhibition at 11.4 µM,[3]; [17],45%
same,inhibition at 22.8 µM,[3]; [18],35%
same,inhibition at 0.35 µM,"[3]; Salmonella enterica, TYPHIMURIUM, read-out: % mutagenic inhibition, PhIP 0.1 µg/plate, +S9, 0.35 µM/plate",46%
same,inhibition at 0.7 µM,"[3]; Salmonella enterica, TYPHIMURIUM, read-out: % mutagenic inhibition, PhIP 0.1 µg/plate, +S9, 0.70 µM/plate",62%
same,inhibition at 1.4 µM,"[3]; Salmonella enterica, TYPHIMURIUM, read-out: % mutagenic inhibition, PhIP 0.1 µg/plate, +S9, 1.40 µM/plate",81%
same,inhibition at 2.85 µM,"[3]; Salmonella enterica, TYPHIMURIUM, read-out: % mutagenic inhibition, PhIP 0.1 µg/plate, +S9, 2.85 µM/plate",82%
same,inhibition at […],"[3]; Salmonella enterica, TYPHIMURIUM, read-out: % mutagenic inhibition, PhIP 0.1 µg/plate, +S9, 5.70 µM/plate",89%
same,Inhibitory Classification,[4]; [8],Mild
same,Number of Revertant Colonies,[4]; [8],252 ± 14
same,Inhibitory Classification,[4]; [9],Mild
same,Number of Revertant Colonies,[4]; [9],250 ± 6
same,Inhibitory Classification,[4]; [10],Mild
same,Number of Revertant Colonies,[4]; [10],235 ± 20
same,Inhibitory Classification,[4]; [19],Moderate
same,Number of Revertant Colonies,[4]; [19],328 ± 32
same,Inhibitory Classification,[4]; [20],Strong
same,Number of Revertant Colonies,[4]; [20],243 ± 16
same,Inhibitory Classification,[4]; [21],Strong
same,Number of Revertant Colonies,[4]; [21],161 ± 10
same,Inhibitory Classification,[4]; [22],Strong
same,Number of Revertant Colonies,[4]; [22],106 ± 15
same,Inhibitory Classification,[4]; [23],Strong
same,Number of Revertant Colonies,[4]; [23],47 ± 10
same,inhibition at […],[4]; [16],32%
same,inhibition at 11.4 µM,[4]; [17],32%
same,inhibition at 22.8 µM,[4]; [18],37%
same,inhibition at 0.35 µM,"[4]; Salmonella enterica, TYPHIMURIUM, read-out: % mutagenic inhibition, IQ 0.05 µg/plate, +S9, 0.35 µM/plate",56%
same,inhibition at 0.7 µM,"[4]; Salmonella enterica, TYPHIMURIUM, read-out: % mutagenic inhibition, IQ 0.05 µg/plate, +S9, 0.70 µM/plate",67%
same,inhibition at 1.4 µM,"[4]; Salmonella enterica, TYPHIMURIUM, read-out: % mutagenic inhibition, IQ 0.05 µg/plate, +S9, 1.40 µM/plate",78%
same,inhibition at 2.85 µM,"[4]; Salmonella enterica, TYPHIMURIUM, read-out: % mutagenic inhibition, IQ 0.05 µg/plate, +S9, 2.85 µM/plate",86%
same,inhibition at […],"[4]; Salmonella enterica, TYPHIMURIUM, read-out: % mutagenic inhibition, IQ 0.05 µg/plate, +S9, 5.70 µM/plate",94%
same,Number of Revertant Colonies,"[5]; +S9, 5.7 µM/plate",27 ± 7
same,Number of Revertant Colonies,"[5]; +S9, 11.4 µM/plate",26 ± 8
same,Number of Revertant Colonies,"[5]; +S9, 22.8 µM/plate",27 ± 8
same,mutagenicity in the Ames test,"[5]; TA98 and TA100, presence and absence of metabolic activation",did not induce mutations
same,Number of Revertant Colonies,"[5]; −S9, 5.7 µM/plate",22 ± 6
same,Number of Revertant Colonies,"[5]; −S9, 11.4 µM/plate",23 ± 5
same,Number of Revertant Colonies,"[5]; −S9, 22.8 µM/plate",23 ± 7
same,Number of Revertant Colonies,"[6]; +S9, 5.7 µM/plate",136 ± 12
same,Number of Revertant Colonies,"[6]; +S9, 11.4 µM/plate",131 ± 7
same,Number of Revertant Colonies,"[6]; +S9, 22.8 µM/plate",136 ± 8
same,Number of Revertant Colonies,"[6]; −S9, 5.7 µM/plate",120 ± 6
same,Number of Revertant Colonies,"[6]; −S9, 11.4 µM/plate",115 ± 7
same,Number of Revertant Colonies,"[6]; −S9, 22.8 µM/plate",117 ± 4
same,mortality,[7]; single oral 5000 mg/kg BW,40%
same,LD50,[7]; single oral administration,~5000 mg/kg BW
